Patent publication US12398125B2, “Nitrogen-containing saturated heterocyclyl derivative” (Sumitomo Pharma Co., Ltd., priority 2022, dated 2025)

Tests used:
Type in all cases: cell-based
[1] = tested on: α-synuclein aggregate in neurospheroid prepared from human iPS cells with a mutation in PLA2G6 gene; test: Test 2: suppressing the accumulation of α-synuclein aggregate with neurospheroid; conditions: 120 h, DMSO = 100%, compound added day 4, measured day 9 after induction of differentiation; for activity at 0.1 µM: 100 nM, read-out: Amount of aggregate (%) 100 nM; for activity at 1 µM: 1000 nM, read-out: Amount of aggregate (%) 1000 nM
Description: Test 2: Evaluation of Suppressing the Accumulation of α-Synuclein Aggregate with Neurospheroid Prepared from Human iPS Cells with a Mutation in PLA2G6 Gene
(§1) (1) Induction of Differentiation from Human iPS Cell to Neural Cell
Neural stem cells were induced from PLA2G6 gene mutant iPS cells with PSC Neuronal Induction Medium (Thermo Fisher Scientific Inc., cat #A1647801). Neurospheroid was prepared from the induced neural stem cells by three-dimensional culture system, and preserved with BrainPhys Neuronal Medium (STEMCELL Technologies, cat #ST-05793) comprising NeuroCult SM1 Neuronal Supplement, N2 Supplement-A, 20 ng/mL BDNF, 20 ng/mL GDNF, 1 mM dibutyryl cAMP, and 200 nM ascorbic acid. Half of the culture medium was replaced on day 2 and day 4 after the induction of differentiation.
The test compound was diluted with the culture medium so as to be twice the final concentration, and an equal volume of the twice-concentrated solution was added to each well when half of the culture medium was replaced on day 4 after induction of differentiation.
(§2) (2) Evaluation of the Amount of α-Synuclein Aggregate
(§3) From the neurospheroid 9 days after the induction of differentiation, proteins were extracted with a TBS solution containing 1% TritionX-100, and the extracted proteins were subjected to a protein analysis with Simple Western system (Protein Simple, Inc., cat #SM-W008) using an α-synuclein antibody (Thermo Fisher Scientific Inc., cat #AHB0261) to measure the amount of the α-synuclein aggregate.
Assuming that the amount of the aggregate in the neurospheroid added with a DMSO solution is 100%, the amount of the aggregate in the neurospheroid added with each test compound was evaluated.

[2] = tested on: α-synuclein aggregate in dopamine neurospheroid prepared from human iPS cells with a mutation in GBA1 gene; test: Test 11: reducing the accumulation of α-synuclein aggregate with dopamine neurospheroid; conditions: DMSO = 100%, compound added day 40, measured day 44, GBA1 mutant
Description: Test 11: Evaluation of Reducing the Accumulation of α-Synuclein Aggregate with Dopamine Neurospheroid Prepared from Human iPS Cells with a Mutation in GBA1 Gene
as §1
(§4) Dopaminergic progenitor cells were induced from GBA1 gene mutant iPS cells with dopaminergic neuron differentiation kit (Thermo Fisher Scientific Inc., cat #A3147701). Dopamine neurospheroid was prepared from the induced dopaminergic progenitor cells by three-dimensional culture system, and preserved with BrainPhys Neuronal Medium (STEMCELL Technologies, cat #ST-05793) comprising NeuroCult SM1 Neuronal Supplement, N2 Supplement-A, 20 ng/mL BDNF, 20 ng/mL GDNF, 1 mM dibutyryl cAMP, and 200 nM ascorbic acid. Half of the culture medium was replaced every 3 or 4 days.
The test compound was diluted with the culture medium so as to be twice the final concentration, and an equal volume of the twice-concentrated solution was added to each well when half of the culture medium was replaced on day 40 after induction of differentiation.
as §2
as §3, with “From the dopamine neurospheroid 44” for “From the neurospheroid 9”, “dopamine neurospheroid 44 days after” for “the neurospheroid 9 days after”
(§5) The amount of the aggregate in the neurospheroid added with each test compound was measured. Assuming that the amount of the aggregate in the neurospheroid added with a DMSO solution is 100%, the amount of the aggregate in the test samples was evaluated.

[3] = tested on: α-synuclein aggregate in neurospheroid prepared from human iPS cells with a mutation in PLA2G6 gene; test: Test 3: reducing the accumulation of α-synuclein aggregate with neurospheroid; conditions: 120 h, DMSO = 100%, compound added day 10, measured day 15 after induction of differentiation; for activity at 0.1 µM: 100 nM, read-out: Amount of aggregate (%) 100 nM; for activity at 1 µM: 1000 nM, read-out: Amount of aggregate (%) 1000 nM
Description: Test 3: Evaluation of Reducing the Accumulation of α-Synuclein Aggregate with Neurospheroid Prepared from Human iPS Cells with a Mutation in PLA2G6 Gene (1) Induction of Differentiation from Human iPS Cell to Neural Cell
Neural stem cells were induced from PLA2G6 gene mutant iPS cells with PSC Neuronal Induction Medium (Thermo Fisher Scientific Inc., cat #A1647801). Neurospheroid was prepared from the induced neural stem cells by three-dimensional culture system, and preserved with BrainPhys Neuronal Medium (STEMCELL Technologies, cat #ST-05793) comprising NeuroCult SM1 Neuronal Supplement, N2 Supplement-A, 20 ng/mL BDNF, 20 ng/mL GDNF, 1 mM dibutyryl cAMP, and 200 nM ascorbic acid. Half of the culture medium was replaced every 3 or 4 days after the induction of differentiation.
The test compound was diluted with the culture medium so as to be twice the final concentration, and an equal volume of the twice-concentrated solution was added to each well when half of the culture medium was replaced on day 10 after induction of differentiation.
as §2
as §3, with “15” for “9”
as §5

[4] = tested on: α-synuclein aggregate in dopamine neurospheroid prepared from human iPS cells with a mutation in PLA2G6 gene; test: Test 5: suppressing the accumulation of α-synuclein aggregate with dopamine neurospheroid; conditions: 120 h, DMSO = 100%, compound added day 21, measured day 26, PLA2G6 mutant; for activity at 0.1 µM: 100 nM, read-out: Amount of aggregate (%) 100 nM; for activity at 1 µM: 1000 nM, read-out: Amount of aggregate (%) 1000 nM
Description: Test 5: Evaluation of Suppressing the Accumulation of α-Synuclein Aggregate with Dopamine Neurospheroid Prepared from Human iPS Cells with a Mutation in PLA2G6 Gene
as §1
as §4, with “PLA2G6” for “GBA1”, “days after the induction of differentiation.” for “days.”
The test compound was diluted with the culture medium so as to be twice the final concentration, and an equal volume of the twice-concentrated solution was added to each well when half of the culture medium was replaced on day 21 after induction of differentiation.
as §2
as §3, with “From the dopamine neurospheroid 26” for “From the neurospheroid 9”, “dopamine neurospheroid 26 days after” for “the neurospheroid 9 days after”
as §5

`CC1(C(=O)N2CCC(c3ccc(C(F)(F)F)nc3)CC2)COC1` [Example 1, (3-Methyloxetan-3-yl){4-[6-(trifluoromethyl)pyridin-3-yl]piperidin-1-yl}methanone] was tested, and the activity at 0.1 µM [1] was 14%, the activity at 1 µM [1] was 16% and the “Amount of aggregate (%) 100 nM” value [2] was 23%. The “Amount of aggregate (%) 1000 nM” value [2] was 14%, the activity at 0.1 µM [3] was 20% and the activity at 1 µM [3] was 30%. The activity at 0.1 µM [4] was 17% and the activity at 1 µM [4] was 21%.

In the case of `CC1(C(=O)N2CCC(c3cncc(C(F)(F)F)c3)CC2)COC1` [Example 2, (3-methyloxetan-3-yl){4-[5-(trifluoromethyl)pyridin-3-yl]piperidin-1-yl}methanone], the activity at 0.1 µM [1] is reported as 9%, the activity at 1 µM [1] is reported as 1% and the “Amount of aggregate (%) 100 nM” value [2] is reported as 21%. For the same molecule, the “Amount of aggregate (%) 1000 nM” value [2] was 20%, the activity at 0.1 µM [3] was 20% and the activity at 1 µM [3] was 17%. The activity at 0.1 µM [4] was 16% and the activity at 1 µM [4] was 7%.

Molecule `CCC1(C(=O)N2CCC(c3ccc(C(F)(F)F)nc3)CC2)COC1` [Example 5] has an activity at 0.1 µM [1] of 22%, an activity at 1 µM [1] of 90% and an activity at 0.1 µM [3] of 22%. It also gave an activity at 1 µM [3] of 70%, an activity at 0.1 µM [4] of 14% and an activity at 1 µM [4] of 18%.

`CC1(C(=O)N2CCC(c3ccc(C(F)(F)F)cn3)CC2)COC1` [Example 9] was tested, and the activity at 0.1 µM [1] was 8%, the activity at 1 µM [1] was 50% and the activity at 0.1 µM [3] was 10%. The activity at 1 µM [3] was 20%, the activity at 0.1 µM [4] was 18% and the activity at 1 µM [4] was 23%.

`CC1(C(=O)N2CCC(c3cnc(C(F)(F)F)c(F)c3)CC2)COC1` [Example 29, {4-[5-fluoro-6-(trifluoromethyl)pyridin-3-yl]piperidin-1-yl}(3-methyloxetan-3-yl)methanone] showed an activity at 0.1 µM [1] of 24%, an activity at 1 µM [1] of 14% and an activity at 0.1 µM [3] of 42%. For the same molecule, the activity at 1 µM [3] was 60%, the activity at 0.1 µM [4] was 9% and the activity at 1 µM [4] was 8%.

`CCC1(C(=O)N2CCC(c3cnc(C(F)(F)F)cc3C)CC2)COC1` [Example 32] gave an activity at 0.1 µM [1] of 18%, an activity at 1 µM [1] of 5% and an activity at 0.1 µM [3] of 29%. The activity at 1 µM [3] was 96%, the activity at 0.1 µM [4] was 3% and the activity at 1 µM [4] was 0%.

`CC1(C(=O)N2CCC(c3cnccc3C(F)(F)F)CC2)CNC1` [Example 35] was tested, and the activity at 0.1 µM [1] was 28%, the activity at 1 µM [1] was 28% and the activity at 0.1 µM [3] was 16%. For the same molecule, the activity at 1 µM [3] was 19%, the activity at 0.1 µM [4] was 27% and the activity at 1 µM [4] was 38%.

With `CN1CC(C)(C(=O)N2CCC(c3cccnc3C(F)(F)F)CC2)C1` [Example 42, (1,3-dimethylazetidin-3-yl){4-[2-(trifluoromethyl)pyridin-3-yl]piperidin-1-yl}methanone] the activity at 0.1 µM [1] was 27%, the activity at 1 µM [1] was 9% and the “Amount of aggregate (%) 100 nM” value [2] was 18%. For the same molecule, the “Amount of aggregate (%) 1000 nM” value [2] was 8%, the activity at 0.1 µM [3] was 28% and the activity at 1 µM [3] was 45%. The activity at 0.1 µM [4] was 17% and the activity at 1 µM [4] was 11%.

`CN1CC(C)(C(=O)N2CCC(c3cncc(C(F)(F)F)c3)CC2)C1` [Example 44, (1,3-dimethylazetidin-3-yl){4-[5-(trifluoromethyl)pyridin-3-yl]piperidin-1-yl}methanone] was tested, and the activity at 0.1 µM [1] was 20%, the activity at 1 µM [1] was 0% and the “Amount of aggregate (%) 100 nM” value [2] was 20%. For the same molecule, the “Amount of aggregate (%) 1000 nM” value [2] was 24%, the activity at 0.1 µM [3] was 15% and the activity at 1 µM [3] was 16%. The activity at 0.1 µM [4] was 18% and the activity at 1 µM [4] was 26%.

`CN1CC(C)(C(=O)N2CCC(c3ccc(C(F)(F)F)cn3)CC2)C1` [Example 45] showed an activity at 0.1 µM [1] of 9%, an activity at 1 µM [1] of 4% and an activity at 0.1 µM [3] of 46%. The activity at 1 µM [3] was 76%, the activity at 0.1 µM [4] was 17% and the activity at 1 µM [4] was 8%.

`CC1(C(=O)N2CCC(c3cccnc3C(F)(F)F)CC2)CN(CC(F)(F)F)C1` [Example 66, [3-Methyl-1-(2,2,2-trifluoroethyl)azetidin-3-yl]{4-[2-(trifluoromethyl)pyridin-3-yl]piperidin-1-yl}methanone] was tested, and the activity at 0.1 µM [1] was 30% and the activity at 1 µM [1] was 77%.

For `CC1(C(=O)N2CCC(c3cccnc3C(F)(F)F)CC2)CN(C2CC2)C1` [Example 67, (1-Cyclopropyl-3-methylazetidin-3-yl){4-[2-(trifluoromethyl)pyridin-3-yl]piperidin-1-yl}methanone], the activity at 0.1 µM [1] was 82% and the activity at 1 µM [1] was 64%.
